Two molecules from paper doi:10.1101/2025.11.20.689572v1 (biorxiv, 2025) can be followed below.

The target in one assay is T1, M4 (Homo sapiens, UniProt P08173).
T1 construct: gene CHRM4; full-length receptor; HEK293 with TRUPATH sensors (function)
T1 sequence (P08173 1-479): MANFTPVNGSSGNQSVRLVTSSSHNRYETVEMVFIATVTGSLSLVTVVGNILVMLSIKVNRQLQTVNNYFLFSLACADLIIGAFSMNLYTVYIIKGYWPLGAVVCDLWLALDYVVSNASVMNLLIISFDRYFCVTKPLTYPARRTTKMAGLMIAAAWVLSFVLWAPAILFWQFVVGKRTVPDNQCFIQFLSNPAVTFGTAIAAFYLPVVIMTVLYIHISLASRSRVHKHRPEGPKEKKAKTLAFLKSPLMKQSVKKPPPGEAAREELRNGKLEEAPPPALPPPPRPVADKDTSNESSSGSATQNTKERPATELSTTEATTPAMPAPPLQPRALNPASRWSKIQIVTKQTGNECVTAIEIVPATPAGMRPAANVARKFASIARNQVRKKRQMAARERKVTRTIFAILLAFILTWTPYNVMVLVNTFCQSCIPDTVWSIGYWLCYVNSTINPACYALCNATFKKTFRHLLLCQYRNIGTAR
Description: TRUPATH BRET2 G protein dissociation, HEK293. Type of assay: cell-based. The conditions noted are these: HBSS, […] HEPES pH […] °C; agonist mode. On the technique in general: Bioluminescence resonance energy transfer reports proximity on the nanometre scale.

The target in another assay is T2, M5 (Homo sapiens, UniProt P08912).
T2 construct: gene CHRM5; full-length receptor; HEK293 with TRUPATH sensors (function)
T2 sequence (P08912 1-532): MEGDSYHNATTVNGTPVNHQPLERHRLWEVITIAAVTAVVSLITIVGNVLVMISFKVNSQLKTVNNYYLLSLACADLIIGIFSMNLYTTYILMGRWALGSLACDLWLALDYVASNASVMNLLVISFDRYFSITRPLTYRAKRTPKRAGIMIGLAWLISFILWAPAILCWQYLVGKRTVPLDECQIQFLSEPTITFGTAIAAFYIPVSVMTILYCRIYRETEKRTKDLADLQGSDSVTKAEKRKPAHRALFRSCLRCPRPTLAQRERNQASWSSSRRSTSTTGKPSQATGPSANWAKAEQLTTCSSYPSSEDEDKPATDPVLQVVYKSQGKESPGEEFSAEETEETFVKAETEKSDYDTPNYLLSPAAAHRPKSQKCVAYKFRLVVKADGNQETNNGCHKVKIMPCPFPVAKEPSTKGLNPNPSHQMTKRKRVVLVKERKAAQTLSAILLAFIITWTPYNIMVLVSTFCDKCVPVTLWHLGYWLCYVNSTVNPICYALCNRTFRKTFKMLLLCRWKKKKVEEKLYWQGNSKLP
Description: TRUPATH BRET2 G protein dissociation, HEK293. Type of assay: cell-based. The conditions noted are these: HBSS, […] HEPES pH […] °C; agonist mode.

The target in the next assay is CHRM3 (Homo sapiens, UniProt P20309). Description: cell-based. Also noted: species or system HEK293; Fluo-4 Direct calcium mobilization on FLIPR-Tetra. The note with it: Assay=Calcium, agonist mode, % of control agonist.
The next assay has as its target T3, CHRM5 (Homo sapiens, UniProt P08912).
T3 sequence (P08912 1-532): T2 sequence (P08912 1-532)
Description: cell-based. Also on record: species or system HEK293; Fluo-4 Direct calcium mobilization on FLIPR-Tetra. The conditions noted are these: Assay=Calcium, agonist mode, % of control agonist.

A further assay has as its target T4, D3 (Homo sapiens, UniProt P35462).
T4 construct: gene DRD3; full-length receptor; HEK293 cell membranes
Description: competitive radioligand binding, HEK293 membranes. From the text:
competitive radioligand binding, HEK293 membranes on D3

Another assay addresses HRH3 (Homo sapiens, UniProt Q9Y5N1). Description: cell-based. Also on record: species or system HEK293; TRUPATH BRET2 G-protein dissociation; antagonist mode against agonist EC80. The note with it: agonist mode, % of control agonist.
Assay [1] concerns the target T5, CHRM4 (Homo sapiens, UniProt P08173).
T5 sequence (P08173 1-479): T1 sequence (P08173 1-479)
Description: cell-based. Also noted: species or system HEK293; TRUPATH BRET2 G-protein dissociation; antagonist mode against agonist EC80. The note with it: agonist mode, % of control agonist.

The target of another assay is T6, CHRM2 (Homo sapiens, UniProt P08172).
T6 sequence (P08172 1-466): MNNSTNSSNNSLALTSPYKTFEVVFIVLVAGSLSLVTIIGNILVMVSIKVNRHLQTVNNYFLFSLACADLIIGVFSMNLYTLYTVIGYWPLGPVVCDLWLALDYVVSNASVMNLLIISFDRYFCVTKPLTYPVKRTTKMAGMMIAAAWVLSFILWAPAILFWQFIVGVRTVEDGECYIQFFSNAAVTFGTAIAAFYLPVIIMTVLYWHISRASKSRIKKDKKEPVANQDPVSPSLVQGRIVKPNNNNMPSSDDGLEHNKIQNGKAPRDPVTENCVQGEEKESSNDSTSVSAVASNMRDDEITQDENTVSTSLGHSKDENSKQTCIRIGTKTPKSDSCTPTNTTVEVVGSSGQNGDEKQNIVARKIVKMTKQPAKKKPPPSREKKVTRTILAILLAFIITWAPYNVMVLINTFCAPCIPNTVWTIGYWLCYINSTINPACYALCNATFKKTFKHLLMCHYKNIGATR
Description: cell-based. Also on record: species or system HEK293; GloSensor-22F cAMP assay, Gi-mediated inhibition of isoproterenol-stimulated cAMP; antagonist mode against agonist EC80. The note with it: Assay=Gi, agonist mode, % of control agonist.

Assay [2] concerns the target T5, CHRM4. Description: cell-based. Also on record: species or system HEK293; GloSensor-22F cAMP assay, Gi-mediated inhibition of isoproterenol-stimulated cAMP; antagonist mode against agonist EC80. The note with it: Assay=Gi, agonist mode, % of control agonist.
The mark [3] stands for this setting: HEK293, read-out: N-Desmethyl Xanomeline.
Setting [4] is: HEK293, read-out: N-Desmethyl Xanomeline, Assay=Gi1.
Where [5] appears, read: HEK293, read-out: N-Desmethyl Xanomeline, Assay=Gi2.
Setting [6] is: HEK293, read-out: N-Desmethyl Xanomeline, Assay=Gi3.
Setting [7] is: HEK293, read-out: N-Desmethyl Xanomeline, Assay=GoA.
The mark [8] stands for this setting: HEK293, read-out: N-Desmethyl Xanomeline, Assay=GoB.
Where [9] appears, read: HEK293, read-out: Xanomeline, Assay=Gi2.
Setting [10] is: HEK293, read-out: Xanomeline, Assay=GoA.
The mark [11] stands for this setting: HEK293, read-out: Xanomeline, Assay=GoB.

Molecules are shown by their SMILES. pKi: −log10 of the molar value. Like-named read-outs stand apart in the source and are kept apart here.

Sequence of HRH3 (Q9Y5N1 whole entry): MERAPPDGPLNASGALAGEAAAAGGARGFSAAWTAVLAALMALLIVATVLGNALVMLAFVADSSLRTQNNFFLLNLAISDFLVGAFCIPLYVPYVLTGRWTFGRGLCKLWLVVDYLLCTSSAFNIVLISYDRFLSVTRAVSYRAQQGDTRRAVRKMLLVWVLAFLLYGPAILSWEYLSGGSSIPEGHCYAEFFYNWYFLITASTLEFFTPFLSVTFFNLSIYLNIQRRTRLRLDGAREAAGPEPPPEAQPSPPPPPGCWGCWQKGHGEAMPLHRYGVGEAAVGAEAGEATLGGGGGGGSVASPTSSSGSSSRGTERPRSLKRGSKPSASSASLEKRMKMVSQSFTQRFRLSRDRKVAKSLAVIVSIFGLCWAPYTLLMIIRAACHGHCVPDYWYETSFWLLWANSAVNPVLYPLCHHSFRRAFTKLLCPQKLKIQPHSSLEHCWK
T4 sequence (P35462 whole entry): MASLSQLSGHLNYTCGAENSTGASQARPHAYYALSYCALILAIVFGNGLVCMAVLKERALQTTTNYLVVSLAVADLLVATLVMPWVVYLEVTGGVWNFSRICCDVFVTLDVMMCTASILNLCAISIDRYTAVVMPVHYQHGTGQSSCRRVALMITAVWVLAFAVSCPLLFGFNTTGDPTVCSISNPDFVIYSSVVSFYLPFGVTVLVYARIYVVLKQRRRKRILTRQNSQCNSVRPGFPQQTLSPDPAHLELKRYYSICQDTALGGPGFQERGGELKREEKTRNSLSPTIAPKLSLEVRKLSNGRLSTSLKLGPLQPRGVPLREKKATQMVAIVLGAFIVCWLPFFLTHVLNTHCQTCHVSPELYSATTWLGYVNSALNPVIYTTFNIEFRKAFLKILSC
Sequence of CHRM3 (P20309 whole entry): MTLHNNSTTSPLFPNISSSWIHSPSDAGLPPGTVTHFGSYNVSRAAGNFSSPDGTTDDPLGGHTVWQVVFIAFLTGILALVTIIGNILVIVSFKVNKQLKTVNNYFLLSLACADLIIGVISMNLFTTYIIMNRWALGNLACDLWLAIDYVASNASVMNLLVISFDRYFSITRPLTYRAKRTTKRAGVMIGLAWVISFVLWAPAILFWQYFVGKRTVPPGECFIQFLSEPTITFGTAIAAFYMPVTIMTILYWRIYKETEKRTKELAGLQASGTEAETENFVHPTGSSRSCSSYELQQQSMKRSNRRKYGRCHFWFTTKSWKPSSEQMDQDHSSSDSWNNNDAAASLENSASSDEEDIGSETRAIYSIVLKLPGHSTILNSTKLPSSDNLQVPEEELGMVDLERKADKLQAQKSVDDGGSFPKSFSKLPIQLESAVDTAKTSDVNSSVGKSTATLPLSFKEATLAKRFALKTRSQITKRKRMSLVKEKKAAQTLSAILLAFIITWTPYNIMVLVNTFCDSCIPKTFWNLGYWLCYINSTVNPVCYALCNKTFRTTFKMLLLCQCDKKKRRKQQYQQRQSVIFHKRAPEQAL

On to `CCCCCCOc1nsnc1C1=CCCNC1` [N-desmethylxanomeline], for which the EC50 result on M4 and on M5 was “differential activation of M1-M5 muscarinic receptor transducers” each time. In addition, the Emax turned out to be 39% on CHRM3 (setting [3]); 31.9% on CHRM5 (setting [3]); 75.4% on HRH3 (setting [4]); 65.4% on HRH3 (setting [5]); 84% at HRH3 (setting [6]); 79.3% at HRH3 (setting [7]). The Emax at HRH3 (setting [8]) is 82.8%; on CHRM4 [1] (setting [4]), 94.1%; on CHRM4 [1] (setting [5]) it was 106%; on CHRM4 [1] (setting [6]), 81.3%; at CHRM4 [1] (setting [7]), 100%; on CHRM4 [1] (setting [8]), 102%. The Emax on CHRM4 [1] (HEK293, read-out: N-Desmethyl Xanomeline, Assay=Gz) is 89%; at CHRM2 (setting [3]), 107%; on CHRM4 [2] (setting [3]), 84.4%. Further, the negative logarithm of the Ki (pKi) at D3 was 6.19.

As for `CCCCCCOc1nsnc1C1=CCCN(C)C1` [Xanomeline], the EC50 result at M4 is “xanomeline being more potent and efficacious than carbachol at M1 and M4 muscarinic receptors”; at M5, “differential activation of M1-M5 muscarinic receptor transducers”. The Emax at CHRM3 (HEK293, read-out: Xanomeline) was determined as 41%; on CHRM5 (HEK293, read-out: Xanomeline), 35.4%; on HRH3 (setting [9]), 28.5%; at HRH3 (setting [10]), 25.7%; at HRH3 (setting [11]) it was 19%; at CHRM4 [1] (HEK293, read-out: Xanomeline, Assay=Gi1), 98.4%. In addition, the Emax on CHRM4 [1] (setting [9]) amounted to 110%; at CHRM4 [1] (HEK293, read-out: Xanomeline, Assay=Gi3), 86%; on CHRM4 [1] (setting [10]), 107%; at CHRM4 [1] (setting [11]), 106%; on CHRM4 [1] (HEK293, read-out: Xanomeline, Assay=Gz), 94.1%; at CHRM2 (HEK293, read-out: Xanomeline), 85.9%. In addition, on CHRM4 [2] (HEK293, read-out: Xanomeline), the Emax was 87.2%. At D3, this molecule had a pKi of 6.60.

The pKi is the Ki on a negative log10 scale, so that one unit is a factor of ten.
